Each structure is given as a SMILES string.

For this assay, the target named is T1, chimpanzee GPR105 protein (Pan troglodytes, UniProt A0A2J8P2M1).
T1 construct: expressed in transfected cells
T1 sequence (A0A2J8P2M1 1-338): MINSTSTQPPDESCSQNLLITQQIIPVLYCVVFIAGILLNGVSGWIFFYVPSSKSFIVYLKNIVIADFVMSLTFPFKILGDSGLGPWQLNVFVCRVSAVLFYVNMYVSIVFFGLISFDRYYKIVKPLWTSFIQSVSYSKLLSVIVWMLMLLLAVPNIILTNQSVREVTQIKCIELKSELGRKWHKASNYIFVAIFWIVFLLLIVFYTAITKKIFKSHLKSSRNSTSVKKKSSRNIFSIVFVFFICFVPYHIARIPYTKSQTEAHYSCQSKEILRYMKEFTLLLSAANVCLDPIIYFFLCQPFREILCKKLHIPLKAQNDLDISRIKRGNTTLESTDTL
In words: Cell-Binding Assay: inhibition of UDP-glucose-induced Ca2+ signaling (FLIPR) in HEK/GPR105/Gqi5 cells. In kind it is cell-based. Conditions: HEK cells expressing chimpanzee GPR105 and Gqi5, UDP-glucose agonist at EC80. As to the method: A stable HEK clonal cell line expressing the chimpanzee GPR105 protein and the chimeric G protein Gqi5 was developed. The chimeric Gqi5 forces the coupling of GPR105 through the Gq (calcium) pathway and allows for monitoring of calcium signaling using a calcium binding fluorescent dye and the FLIPR (fluorometric imaging plate reader, MDS Sciex). […] Cells were incubated overnight at 37° C. and 5% CO2 to form a monolayer. On the following day, 30 μL of fluorescent no-wash dye was added to the cell monolayer and the plate was incubated for 60 min at 37° C., 5% CO2. […] of compound in 100% DMSO was added to cell/dye incubation using acoustic dispensing (Echo™, Labcyte). Following a 20 minute incubation of compound at room temperature, 6.25 μL of UDP-glucose agonist (at EC80) in Hank's Balanced Salt Solution (HBSS) containing 20 mM Hepes was added to cells and Ca^2+ signaling was monitored by FLIPR. Quantitation of the % inhibition of Ca^2+ signaling by antagonist was calculated using the maximum fluorescent signal detected. IC50's for the compounds of structural formula (I) were calculated as follows: […]

On to `CCc1cccc(NC(=O)N2CCc3nc(-c4ccc(C#N)nc4)nc(-c4ccccc4C)c3C2)c1`, for which the IC50 (usually the concentration that inhibits the measured activity by half) was 7.8 nM.
For `CCc1cc(NC(=O)N2CCc3nc(-c4cccnc4)nc(-c4ccccc4C)c3C2)cc(-c2cn(C)cn2)c1` the value was 5.6 nM; for `CCc1cc(Cl)cc(NC(=O)N2CCc3nc(-c4cncnc4)nc(-c4ccccc4C)c3C2)c1`, 10.5 nM; for `CCc1cc(NC(=O)N2CCc3nc(-c4cccnc4)nc(-c4ccccc4C)c3C2)cc(-c2ccc(C(=O)O)cc2)c1`, 4 nM.
The compound `Cc1ccccc1-c1nc(-c2cccnc2)nc2c1CN(C(=O)Nc1cccc(-c3ccc(C(N)=O)cc3)c1)CC2` came in with a concentration for half-maximal inhibition (IC50) of 18.4 nM.
For `CCc1cncc(NC(=O)N2CCc3nc(-c4cccnc4)nc(-c4ccccc4C)c3C2)c1` the value was 55.7 nM.
`CCc1cc(NC(=O)N2CCc3nc(-c4cccnc4)nc(-c4ccccc4C)c3C2)cc(Oc2ccccc2)c1` displayed an IC50 of 8.1 nM.
As to `CCc1cccc(NC(=O)N2CCc3nc(-c4ccnn4C)nc(-c4ccccc4C)c3C2)c1`, the concentration for half-maximal inhibition (IC50) came to 34.5 nM.
In the case of `CCc1cccc(NC(=O)N2CCc3nc(-c4ccnc(F)c4)nc(-c4ccccc4C)c3C2)c1` it was 12 nM.
`CCc1cccc(NC(=O)N2CCc3nc(-c4cscc4C)nc(-c4ccccc4C)c3C2)c1`: the IC50 came out at 65.1 nM.

(Values after US20100179173A1, “SUBSTITUTED FUSED PYRIMIDINES AS ANTAGONISTS OF GPR105 ACTIVITY” (priority 2007, published 2010).)
